Reference: ChEMBL document CHEMBL3217638, “Synthetic modulators of the retinoic acid receptor-related orphan receptors” (Medchemcomm, 2013)

What was measured:
[1] = target: T1, Nuclear receptor ROR-alpha (Mus musculus) (UniProt P51448); settings: CHO-K1
T1 sequence (whole entry): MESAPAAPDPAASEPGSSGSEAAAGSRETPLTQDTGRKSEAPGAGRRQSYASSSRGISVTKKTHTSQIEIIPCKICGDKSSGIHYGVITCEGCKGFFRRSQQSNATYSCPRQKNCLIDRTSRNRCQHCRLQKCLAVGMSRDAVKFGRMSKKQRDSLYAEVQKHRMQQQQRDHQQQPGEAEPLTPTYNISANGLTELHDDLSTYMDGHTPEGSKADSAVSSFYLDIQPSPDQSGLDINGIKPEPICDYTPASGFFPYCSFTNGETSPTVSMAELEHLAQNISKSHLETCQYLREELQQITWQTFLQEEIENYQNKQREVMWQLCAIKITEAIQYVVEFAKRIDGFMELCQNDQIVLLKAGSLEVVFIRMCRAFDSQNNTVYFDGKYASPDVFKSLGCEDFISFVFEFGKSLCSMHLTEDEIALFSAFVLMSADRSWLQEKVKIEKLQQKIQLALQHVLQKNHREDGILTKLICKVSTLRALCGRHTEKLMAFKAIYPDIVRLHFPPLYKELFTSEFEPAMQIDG
Description: Inverse agonist activity at mouse ROR alpha expressed in CHO-K1 cells after 24 hrs by luciferase reporter gene assay relative to vehicle control response

[2] = target: T2, Nuclear receptor ROR-gamma (Mus musculus) (UniProt P51450); settings: CHO-K1
T2 sequence (whole entry): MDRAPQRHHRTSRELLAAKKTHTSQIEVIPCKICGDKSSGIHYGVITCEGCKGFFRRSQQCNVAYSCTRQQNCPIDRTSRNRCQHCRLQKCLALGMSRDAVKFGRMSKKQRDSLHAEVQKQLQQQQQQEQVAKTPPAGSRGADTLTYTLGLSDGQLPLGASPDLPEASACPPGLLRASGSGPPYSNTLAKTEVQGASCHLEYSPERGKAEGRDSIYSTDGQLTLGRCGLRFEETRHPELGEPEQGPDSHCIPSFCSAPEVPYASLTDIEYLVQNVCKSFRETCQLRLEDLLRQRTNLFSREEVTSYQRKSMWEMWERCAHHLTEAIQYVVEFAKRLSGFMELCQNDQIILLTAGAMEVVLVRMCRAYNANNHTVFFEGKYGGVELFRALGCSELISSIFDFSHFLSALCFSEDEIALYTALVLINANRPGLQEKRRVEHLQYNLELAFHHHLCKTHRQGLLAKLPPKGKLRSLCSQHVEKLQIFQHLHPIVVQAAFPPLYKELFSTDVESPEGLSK
Description: Inverse agonist activity at mouse ROR gamma expressed in CHO-K1 cells after 24 hrs by luciferase reporter gene assay relative to vehicle control response

[3] = target: T3, Nuclear receptor ROR-gamma (Homo sapiens, UniProt P51449); experiment: Displacement of 25-[3H]hydroxycholesterol from GST-tagged ROR gamma ligand binding domain (unknown origin) expressed in Escherichia coli BL21 gold (DE3) cells by radioligand competition assay
T3 sequence (P51449 whole entry): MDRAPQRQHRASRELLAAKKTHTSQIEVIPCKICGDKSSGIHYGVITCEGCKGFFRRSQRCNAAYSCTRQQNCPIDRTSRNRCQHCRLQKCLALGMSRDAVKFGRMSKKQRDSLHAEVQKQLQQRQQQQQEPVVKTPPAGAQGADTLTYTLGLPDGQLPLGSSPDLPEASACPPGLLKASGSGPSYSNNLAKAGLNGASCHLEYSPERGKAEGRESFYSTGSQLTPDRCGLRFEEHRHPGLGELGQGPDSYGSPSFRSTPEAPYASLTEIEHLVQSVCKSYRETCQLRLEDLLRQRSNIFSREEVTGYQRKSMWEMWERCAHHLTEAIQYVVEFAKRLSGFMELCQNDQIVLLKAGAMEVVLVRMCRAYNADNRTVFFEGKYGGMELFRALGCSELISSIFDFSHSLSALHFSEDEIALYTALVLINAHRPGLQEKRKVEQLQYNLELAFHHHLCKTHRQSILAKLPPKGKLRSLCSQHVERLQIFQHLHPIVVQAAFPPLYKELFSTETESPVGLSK

[4] = target: T4, Oxysterols receptor LXR-alpha (Homo sapiens) (UniProt Q13133); experiment: Activation of GAL4-fused LXR alpha (unknown origin) expressed in HEK293T cells after 20 hrs relative to T0901317; type: cell-based; settings: HEK-293T
T4 sequence (whole entry): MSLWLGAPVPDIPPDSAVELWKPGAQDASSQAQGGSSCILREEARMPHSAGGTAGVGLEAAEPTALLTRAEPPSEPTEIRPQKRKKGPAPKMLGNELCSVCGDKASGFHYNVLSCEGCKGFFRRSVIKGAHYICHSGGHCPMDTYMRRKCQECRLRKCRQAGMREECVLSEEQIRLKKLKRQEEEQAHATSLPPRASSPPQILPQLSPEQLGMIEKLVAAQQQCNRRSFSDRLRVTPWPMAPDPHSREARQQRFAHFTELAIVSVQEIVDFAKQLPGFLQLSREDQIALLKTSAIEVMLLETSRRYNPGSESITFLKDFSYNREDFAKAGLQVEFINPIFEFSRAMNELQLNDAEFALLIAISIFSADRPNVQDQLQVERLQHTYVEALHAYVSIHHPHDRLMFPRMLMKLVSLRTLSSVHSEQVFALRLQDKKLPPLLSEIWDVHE

[5] = target: T3, Nuclear receptor ROR-gamma; experiment: Agonist activity at human His6-tagged ROR gamma ligand binding domain (residues 262 to 507) expressed in Escherichia coli BL21 (DE3) cells assessed as increase in recruitment of coactivator peptide by AlphaScreen biochemical assay; type: functional
[6] = target: T5, Nuclear receptor ROR-alpha (Homo sapiens, UniProt P35398); experiment: Displacement of 25-[3H]hydroxycholesterol from GST-tagged ROR alpha ligand binding domain (unknown origin) expressed in Escherichia coli BL21 gold (DE3) cells by radioligand competition assay
T5 sequence (P35398 whole entry): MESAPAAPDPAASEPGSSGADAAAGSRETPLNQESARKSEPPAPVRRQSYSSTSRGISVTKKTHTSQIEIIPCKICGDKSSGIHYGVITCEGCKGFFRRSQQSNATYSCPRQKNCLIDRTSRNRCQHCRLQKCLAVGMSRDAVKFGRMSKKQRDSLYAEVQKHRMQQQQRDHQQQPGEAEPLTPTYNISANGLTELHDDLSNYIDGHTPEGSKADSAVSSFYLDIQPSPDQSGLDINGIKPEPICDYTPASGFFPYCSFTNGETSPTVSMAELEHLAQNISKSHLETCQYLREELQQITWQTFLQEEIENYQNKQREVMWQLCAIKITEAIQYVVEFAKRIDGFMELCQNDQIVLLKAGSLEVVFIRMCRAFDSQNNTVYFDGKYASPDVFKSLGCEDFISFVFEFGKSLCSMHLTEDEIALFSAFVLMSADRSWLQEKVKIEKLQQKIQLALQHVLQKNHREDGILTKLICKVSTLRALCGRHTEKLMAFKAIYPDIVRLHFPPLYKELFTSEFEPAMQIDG

[7] = target: T5, Nuclear receptor ROR-alpha; experiment: Inverse agonist activity at GAL4-fused ROR alpha (unknown origin) expressed in HEK293 cells assessed as inhibition of transcriptional activity after 24 hrs by luciferase reporter gene assay; type: cell-based
[8] = target: T3, Nuclear receptor ROR-gamma
Description: Inverse agonist activity at GAL4-fused ROR gamma (unknown origin) expressed in HEK293 cells assessed as inhibition of transcriptional activity after 24 hrs by luciferase reporter gene assay

[9] = target: T3, Nuclear receptor ROR-gamma; experiment: Displacement of 25-[3H]hydroxycholesterol from ROR gamma (unknown origin) by competitive binding assay
[10] = Plasma concentration in mouse at 10 mg/kg, ip administered as single dose after 1 hr; type: ADME, organism-based; parameters: dose 10 mg/kg, route intraperitoneal
[11] = Plasma concentration in mouse at 10 mg/kg, ip administered as single dose after 8 hrs; type: ADME, organism-based; parameters: dose 10 mg/kg, route intraperitoneal
[12] = target: T6, Nuclear receptor ROR-gamma (Homo sapiens) (UniProt P51449); experiment: Binding affinity to human ROR gamma ligand binding domain assessed as thermal stability shift by circular dichroism analysis
T6 sequence (whole entry): T3 sequence (P51449 whole entry)

[13] = Plasma concentration in mouse at 10 mg/kg, ip after 0.5 hrs; type: ADME, organism-based; parameters: dose 10 mg/kg, route intraperitoneal
[14] = Plasma concentration in mouse at 10 mg/kg, ip after 4 hrs; type: ADME, organism-based; parameters: dose 10 mg/kg, route intraperitoneal
[15] = target: T3, Nuclear receptor ROR-gamma; experiment: Activity at human His(GST)-tagged ROR gamma LBD expressed in Escherichia coli BL21 (DE3) cells assessed as receptor-biotinylated SRC1 peptide interaction by TR-FRET assay; type: functional

Structure (SMILES): Clc1ccc(CS/C(Cn2cncn2)=N\c2ccc(Cl)cc2Cl)cc1
- IC20 [1]: 10000 nM
- IC20 [2]: 3000 nM

Structure (SMILES): CC(C)CCC[C@@H](C)[C@H]1CC[C@H]2[C@@H]3[C@@H](O)C=C4C[C@@H](O)CC[C@]4(C)[C@H]3CC[C@]12C
- Ki [3]: 10 nM

Structure (SMILES): OC(c1ccc(-c2ccc(CN3CCN(Cc4ccncc4)CC3)cc2)c(F)c1)(C(F)(F)F)C(F)(F)F
- Activity [4]: < 5%

Structure (SMILES): CC(C)CCC[C@@](C)(O)[C@H]1CC[C@H]2[C@@H]3CC=C4C[C@@H](O)CC[C@]4(C)[C@H]3CC[C@@]21C
- EC50 [5]: 20 nM

Structure (SMILES): CC(=O)Nc1nc(C)c(S(=O)(=O)Nc2ccc(C(O)(C(F)(F)F)C(F)(F)F)cc2)s1
- Ki [6]: 172 nM
- Ki [3]: 111 nM
- EC50 [7]: 4000 nM
- EC50 [8]: 4000 nM

Structure (SMILES): CCCCC(O)(Cn1cncn1)c1ccc(Cl)cc1Cl (configuration not stated)
- IC20 [1]: 10000 nM
- IC20 [2]: 3000 nM

Structure (SMILES): CC(c1ccccc1)(c1ccc(O)cc1)c1ccc(O)cc1
- IC50 [9]: > 10000 nM

Structure (SMILES): CC(C)CCC[C@@H](C)[C@H]1CC[C@H]2[C@@H]3C(=O)C=C4C[C@@H](O)CC[C@]4(C)[C@H]3CC[C@]12C [7-OXOCHOLESTEROL]
- Ki [6]: 12 nM

Structure (SMILES): O=C(Nc1ccc(C(O)(C(F)(F)F)C(F)(F)F)cc1)c1ccc(C(F)(F)F)cc1
- concentration at 1 h [10]: 3.6 µM
- concentration at 8 h [11]: > 0.8 µM

Structure (SMILES): CC(C)CCC(O)[C@@H](C)[C@H]1CC[C@H]2[C@@H]3CC=C4C[C@@H](O)CC[C@]4(C)[C@H]3CC[C@]12C (some centres not stated)
- melting temperature shift (delta Tm) [12]: 7.3 °C

Structure (SMILES): O=S(=O)(Nc1ccc(C(O)(C(F)(F)F)C(F)(F)F)cc1)c1cccs1
- Ki [6]: 220 nM
- EC50 [7]: 480 nM
- concentration at 0.5 h [13]: 9 µM
- concentration at 4 h [14]: > 0.36 µM

Structure (SMILES): CC(C)CC[C@@H](O)[C@@H](C)[C@H]1CC[C@H]2[C@@H]3CC=C4C[C@@H](O)CC[C@]4(C)[C@H]3CC[C@]12C [22(R)-HYDROXYCHOLESTEROL]
- EC50 [5]: 20 nM

Structure (SMILES): O=C(O)c1ccc(-c2nn(C(=O)c3c(Cl)cccc3Cl)c3ccccc23)cc1
- EC50 [15]: 11 nM
